Active and inactive are the calls of the source.
What was measured:
[1] = Luminescence Cell-Based Dose Retest to Confirm Inhibitors of Cancer Stem Cells. [Related pubchem assays (depositor defined):AID2717, AID2721]; format: functional; conditions: Homo sapiens
[2] = inhibitors of intracellular T. cruzi replication, confirmation, NIH3T3 host cells, beta-gal luminescence (AID 2044); format: functional, cell-based;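 further: intracellular parasites grown in NIH/3T3 mouse fibroblasts as host cells; luminescent beta-galactosidase reporter signal from transgenic T. cruzi replicating inside host cells; inhibitors lower the luminescence signal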
[3] = cytotoxicity toward NIH3T3 fibroblasts, dose response, counter-screen, cell-based, ATP luminescence, mouse fibroblasts (AID 2010); format: functional;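 further: cells exposed to compound for about 90 hours before reading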
Cytochrome P450 2C9 = Cytochrome P450 2C9 (Homo sapiens, UniProt P11712)
Cytochrome P450 2C9, sequence (P11712 whole entry): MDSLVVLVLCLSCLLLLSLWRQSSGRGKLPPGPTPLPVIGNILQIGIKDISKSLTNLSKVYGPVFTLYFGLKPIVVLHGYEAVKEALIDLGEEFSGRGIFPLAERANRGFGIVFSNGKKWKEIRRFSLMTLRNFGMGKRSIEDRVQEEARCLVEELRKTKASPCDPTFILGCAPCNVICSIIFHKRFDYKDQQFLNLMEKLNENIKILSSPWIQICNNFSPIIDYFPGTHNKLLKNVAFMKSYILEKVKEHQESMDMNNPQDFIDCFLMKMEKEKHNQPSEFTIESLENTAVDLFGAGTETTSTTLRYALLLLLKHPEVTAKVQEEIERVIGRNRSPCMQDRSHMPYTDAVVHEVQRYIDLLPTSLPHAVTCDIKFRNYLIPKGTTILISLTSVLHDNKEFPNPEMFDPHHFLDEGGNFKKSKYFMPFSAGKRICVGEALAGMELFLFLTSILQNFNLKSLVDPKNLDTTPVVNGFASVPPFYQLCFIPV

Cytochrome P450 2C19 = Cytochrome P450 2C19 (Homo sapiens, UniProt P33261); assay: Cytochrome panel assay with activity outcomes. Panel member name: p450-cyp2c19 Compounds with AC50 equal or less than 10 uM are considered active; format: functional
Cytochrome P450 2C19, sequence (P33261 whole entry): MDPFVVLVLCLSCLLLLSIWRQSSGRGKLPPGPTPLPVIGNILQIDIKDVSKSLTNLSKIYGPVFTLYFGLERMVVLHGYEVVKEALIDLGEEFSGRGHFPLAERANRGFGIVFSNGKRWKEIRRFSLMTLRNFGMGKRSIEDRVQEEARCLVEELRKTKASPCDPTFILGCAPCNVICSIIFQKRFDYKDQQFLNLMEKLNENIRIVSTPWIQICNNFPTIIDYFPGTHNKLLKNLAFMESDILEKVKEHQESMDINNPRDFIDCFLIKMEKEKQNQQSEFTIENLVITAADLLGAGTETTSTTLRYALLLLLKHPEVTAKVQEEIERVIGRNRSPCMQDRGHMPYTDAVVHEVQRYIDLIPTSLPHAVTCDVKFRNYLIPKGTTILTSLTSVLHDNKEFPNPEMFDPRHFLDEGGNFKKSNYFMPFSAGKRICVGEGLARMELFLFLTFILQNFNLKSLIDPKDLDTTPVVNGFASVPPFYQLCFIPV

[4] = control 3'UTR Renilla luciferase suppression, dose response, counter-screen for Shn3 inhibitor project, cell-based, Clone20-Shn3RL, cherry-picked (AID 624133); format: functional
[5] = Shn3 3'UTR reporter inhibitors, dose response, cell-based, Clone20 osteoblasts, firefly luciferase, cherry-picked (AID 624132); format: functional;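 further: firefly luciferase luminescence from reporter carrying the Shn3 3'UTR in osteoblasts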
[6] = HepG2 cell cytotoxicity, dose response, cytotoxicity control for Shn3 inhibitor project, CellTiter-Glo, cherry-picked (AID 624134); format: functional, cell-based
[7] = target: FAD-linked sulfhydryl oxidase ALR (Homo sapiens, UniProt P55789); assay: inhibitors of human ALR sulfhydryl oxidase, dose response, biochemical, H2O2 detection, luminescence, cherry-pick (AID 493248)
FAD-linked sulfhydryl oxidase ALR, sequence (P55789 whole entry): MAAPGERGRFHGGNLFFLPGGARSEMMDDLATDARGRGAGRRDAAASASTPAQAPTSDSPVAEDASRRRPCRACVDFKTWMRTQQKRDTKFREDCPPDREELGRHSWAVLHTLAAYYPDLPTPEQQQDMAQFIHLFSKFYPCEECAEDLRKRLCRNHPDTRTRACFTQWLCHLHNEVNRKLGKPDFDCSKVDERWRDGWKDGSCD

[8] = target: T1, Rac GTPase-activating protein 1 (Homo sapiens, UniProt Q9H0H5); assay: MgcRacGAP GTPase-activating activity inhibitors, confirmation, biochemical, ADP Hunter fluorescence, primary and confirmatory (AID 624330); format: functional
T1 sequence (Q9H0H5 whole entry): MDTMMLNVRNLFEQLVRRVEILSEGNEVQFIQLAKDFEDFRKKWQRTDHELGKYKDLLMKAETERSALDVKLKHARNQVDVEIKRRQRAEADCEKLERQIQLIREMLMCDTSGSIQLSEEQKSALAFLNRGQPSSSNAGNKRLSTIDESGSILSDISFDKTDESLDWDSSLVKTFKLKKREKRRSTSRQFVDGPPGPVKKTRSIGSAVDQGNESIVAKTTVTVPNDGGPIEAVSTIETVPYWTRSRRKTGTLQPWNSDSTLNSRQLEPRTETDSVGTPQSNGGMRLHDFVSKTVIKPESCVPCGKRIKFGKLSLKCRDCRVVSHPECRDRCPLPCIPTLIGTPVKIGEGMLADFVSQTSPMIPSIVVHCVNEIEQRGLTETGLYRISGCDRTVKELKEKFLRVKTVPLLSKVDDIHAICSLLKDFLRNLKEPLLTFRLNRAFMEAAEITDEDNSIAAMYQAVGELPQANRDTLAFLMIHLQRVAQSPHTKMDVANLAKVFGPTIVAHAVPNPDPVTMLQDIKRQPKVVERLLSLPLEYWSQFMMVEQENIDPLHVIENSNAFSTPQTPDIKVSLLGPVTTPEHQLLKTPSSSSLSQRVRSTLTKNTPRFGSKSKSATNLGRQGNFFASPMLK

Protein skinhead-1 = target: T2, Protein skinhead-1 (Caenorhabditis elegans, UniProt P34707); format: functional
T2 sequence (P34707 whole entry): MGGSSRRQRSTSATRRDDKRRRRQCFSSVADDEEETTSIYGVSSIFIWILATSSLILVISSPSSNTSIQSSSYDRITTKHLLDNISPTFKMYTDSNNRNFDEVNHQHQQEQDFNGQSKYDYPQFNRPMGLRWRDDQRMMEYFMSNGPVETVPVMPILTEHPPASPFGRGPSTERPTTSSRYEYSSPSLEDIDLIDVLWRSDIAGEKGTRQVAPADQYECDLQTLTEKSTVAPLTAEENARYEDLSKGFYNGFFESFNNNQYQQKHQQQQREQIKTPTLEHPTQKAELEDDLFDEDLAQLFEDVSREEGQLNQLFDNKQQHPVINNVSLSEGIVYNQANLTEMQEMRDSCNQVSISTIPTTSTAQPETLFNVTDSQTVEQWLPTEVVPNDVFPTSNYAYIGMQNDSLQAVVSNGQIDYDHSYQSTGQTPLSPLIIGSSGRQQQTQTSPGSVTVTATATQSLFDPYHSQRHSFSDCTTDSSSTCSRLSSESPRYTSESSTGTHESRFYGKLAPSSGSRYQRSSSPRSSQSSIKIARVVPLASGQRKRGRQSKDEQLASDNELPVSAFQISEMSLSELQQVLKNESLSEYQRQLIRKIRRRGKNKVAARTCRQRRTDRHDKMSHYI

Cytochrome P450 1A2 = target: T3, Cytochrome P450 1A2 (Homo sapiens, UniProt P05177);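 further: PubChem cytochrome P450 panel assay, CYP1A2 panel member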
T3 sequence (P05177 whole entry): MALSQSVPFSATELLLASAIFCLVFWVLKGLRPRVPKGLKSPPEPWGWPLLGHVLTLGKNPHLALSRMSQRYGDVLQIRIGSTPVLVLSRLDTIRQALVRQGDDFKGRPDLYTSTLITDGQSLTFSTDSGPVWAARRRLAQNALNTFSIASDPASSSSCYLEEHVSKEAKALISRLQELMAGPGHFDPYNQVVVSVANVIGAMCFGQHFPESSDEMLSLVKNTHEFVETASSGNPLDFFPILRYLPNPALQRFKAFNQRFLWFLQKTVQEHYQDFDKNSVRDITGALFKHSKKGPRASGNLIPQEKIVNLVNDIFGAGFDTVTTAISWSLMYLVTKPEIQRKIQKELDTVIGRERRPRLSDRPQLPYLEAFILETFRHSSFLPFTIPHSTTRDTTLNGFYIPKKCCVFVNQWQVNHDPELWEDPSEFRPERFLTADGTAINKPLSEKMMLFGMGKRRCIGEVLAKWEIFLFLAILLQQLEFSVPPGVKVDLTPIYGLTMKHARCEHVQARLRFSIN

Genome polyprotein = Genome polyprotein (dengue virus type 2, UniProt P29990); assay: Dengue-2 NS5 methyltransferase inhibitors, primary screen, biochemical, confirmation dose response (AID 588689); format: functional
Genome polyprotein, sequence (P29990 2492-3391 limits assumed): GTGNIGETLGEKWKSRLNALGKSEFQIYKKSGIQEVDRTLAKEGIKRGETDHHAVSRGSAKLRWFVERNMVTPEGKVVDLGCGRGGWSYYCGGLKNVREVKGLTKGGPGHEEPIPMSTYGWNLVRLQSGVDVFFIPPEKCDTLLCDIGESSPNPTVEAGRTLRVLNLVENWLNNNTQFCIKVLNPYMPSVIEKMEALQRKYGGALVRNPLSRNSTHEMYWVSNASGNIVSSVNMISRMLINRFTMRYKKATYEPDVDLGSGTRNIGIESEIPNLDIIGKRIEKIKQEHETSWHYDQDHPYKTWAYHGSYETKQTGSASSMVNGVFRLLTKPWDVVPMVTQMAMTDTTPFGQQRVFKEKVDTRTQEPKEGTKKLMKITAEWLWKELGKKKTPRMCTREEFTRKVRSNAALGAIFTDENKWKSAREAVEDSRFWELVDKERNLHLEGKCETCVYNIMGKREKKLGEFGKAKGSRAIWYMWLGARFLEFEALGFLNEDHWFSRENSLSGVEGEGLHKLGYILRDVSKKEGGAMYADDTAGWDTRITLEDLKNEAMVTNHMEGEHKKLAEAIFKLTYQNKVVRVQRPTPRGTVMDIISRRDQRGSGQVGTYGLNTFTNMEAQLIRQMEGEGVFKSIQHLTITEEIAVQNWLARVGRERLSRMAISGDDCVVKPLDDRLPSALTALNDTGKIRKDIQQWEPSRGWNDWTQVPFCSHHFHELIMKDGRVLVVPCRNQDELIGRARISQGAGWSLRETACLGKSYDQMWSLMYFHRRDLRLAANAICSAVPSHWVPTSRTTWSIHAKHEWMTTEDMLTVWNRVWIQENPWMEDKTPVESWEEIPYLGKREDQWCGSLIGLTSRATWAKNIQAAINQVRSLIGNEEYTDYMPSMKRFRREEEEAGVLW

Cytochrome P450 3A4 = Cytochrome P450 3A4 (Homo sapiens, UniProt P08684);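 further: CYP3A4 tested as one member of a cytochrome P450 panel screen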
Cytochrome P450 3A4, sequence (P08684 whole entry): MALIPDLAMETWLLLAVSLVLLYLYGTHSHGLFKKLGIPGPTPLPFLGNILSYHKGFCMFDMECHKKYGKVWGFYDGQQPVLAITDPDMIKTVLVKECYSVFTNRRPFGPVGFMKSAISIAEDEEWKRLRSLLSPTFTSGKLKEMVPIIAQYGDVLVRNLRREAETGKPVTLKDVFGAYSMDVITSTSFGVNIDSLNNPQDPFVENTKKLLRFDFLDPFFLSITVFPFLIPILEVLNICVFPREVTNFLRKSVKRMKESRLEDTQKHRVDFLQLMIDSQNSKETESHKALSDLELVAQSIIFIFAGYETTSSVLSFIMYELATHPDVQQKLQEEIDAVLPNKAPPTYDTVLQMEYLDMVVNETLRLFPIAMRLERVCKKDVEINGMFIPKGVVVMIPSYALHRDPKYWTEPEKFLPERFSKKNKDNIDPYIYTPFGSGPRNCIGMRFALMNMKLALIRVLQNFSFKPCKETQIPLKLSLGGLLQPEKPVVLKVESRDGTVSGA

[9] = target: T4, Polyadenylate-binding protein 1 (Homo sapiens, UniProt P11940); assay: PABP1 MLLE–PAM2 interaction inhibitors, dose response, miRNA deadenylation inhibitor project, biochemical, fluorescence polarization, Cy5-PAM2 peptide, secondary (AID 602260); format: functional; conditions: read-out: IC50_Mean
T4 sequence (P11940 whole entry): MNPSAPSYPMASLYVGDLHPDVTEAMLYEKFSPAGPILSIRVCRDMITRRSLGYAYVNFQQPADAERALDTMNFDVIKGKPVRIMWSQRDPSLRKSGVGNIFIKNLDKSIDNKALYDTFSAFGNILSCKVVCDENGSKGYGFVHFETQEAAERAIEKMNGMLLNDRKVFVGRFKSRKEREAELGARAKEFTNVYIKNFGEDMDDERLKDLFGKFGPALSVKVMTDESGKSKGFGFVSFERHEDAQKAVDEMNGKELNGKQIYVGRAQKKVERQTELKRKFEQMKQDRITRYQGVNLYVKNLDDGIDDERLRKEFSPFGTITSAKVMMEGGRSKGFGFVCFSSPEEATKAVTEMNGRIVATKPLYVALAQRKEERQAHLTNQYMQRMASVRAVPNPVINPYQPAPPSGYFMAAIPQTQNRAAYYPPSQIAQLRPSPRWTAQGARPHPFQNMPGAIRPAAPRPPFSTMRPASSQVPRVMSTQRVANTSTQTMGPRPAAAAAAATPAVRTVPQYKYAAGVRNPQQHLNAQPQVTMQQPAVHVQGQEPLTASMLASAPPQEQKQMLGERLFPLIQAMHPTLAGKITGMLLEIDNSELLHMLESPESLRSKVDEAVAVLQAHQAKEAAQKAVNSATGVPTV

[10] = HEp-2 cell cytotoxicity, dose response, cytotoxicity control for RSV inhibitor project, HTS (AID 2410); format: functional; conditions: human respiratory syncytial virus
[11] = target: T4, Polyadenylate-binding protein 1; assay: PABP1 MLLE–PAM2 binding inhibitor potency, dose response, biochemical, fluorescence polarization, FITC-PAM2 peptide (AID 602259); format: functional; conditions: read-out: IC50_Mean
[12] = C. albicans growth with fluconazole, confirmation, fluorescence, retest (AID 2467); format: functional, cell-based
[13] = NIH-3T3 fibroblast cytotoxicity, dose response, cytotoxicity control, cell-based, fluorescence, Alamar Blue, secondary assay (AID 2327); format: functional;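 further: NIH-3T3 mouse fibroblasts cultured with fluconazole at 8 µg/mL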

CCOc1cc(N2CCOCC2)c(OCC)cc1NC(=O)CN1CCC(Cc2ccccc2)CC1
AC50 [1]: 2.28 µM (active) | EC50 [2]: 1.36 µM (active) | EC50 [3]: > 60 µM (not active)

CCOP(=O)(CN(CC)CCNP(=O)(OCC)OCC)OCC
AC50 (Cytochrome P450 2C9): 0.126 µM (inconclusive) | AC50 (Cytochrome P450 2C19; read-out: AC50): 39.8 µM (inconclusive)

Cc1cc(C)c(S(=O)(=O)N2Cc3ccccc3-n3nncc3C2)c(C)c1
AC50 [4]: 5.53 µM (active) | AC50 [5]: 4.36 µM (active) | AC50 [6]: 49.7 µM (active)

COc1cc(/C=N/Nc2ccccc2)ccc1O
AC50 [7]: 0.887 µM (active)

COc1ccc(NC2CCCN(C(=O)c3csc(C(C)C)n3)C2)cc1 (configuration not stated)
AC50 [7]: 0.226 µM (active) | IC50 [8]: 139 µM (active)

O=C(NCc1ccc(F)c(F)c1)c1ccc(-c2ccc(F)c(F)c2)c2ccoc12
IC50 (Protein skinhead-1): < 3.13 µM (active)

O=C(CN1C2CCC1CC(NC(=O)C1CC1)C2)NCc1ccccc1 (configuration not stated)
IC50 (Protein skinhead-1): > 100 µM (inactive)

COC(=O)N1CCC2(CCCN(C(c3ccccc3)c3ccccc3)C2)CC1
AC50 (Cytochrome P450 1A2): 15.8 µM (inconclusive) | AC50 (Cytochrome P450 2C19; read-out: AC50): 25.1 µM (inconclusive)

O=C1NC(=O)C(=Cc2cccc(OCCOc3ccccc3)c2)C(=O)N1
IC50 (Genome polyprotein): 51.2 µM (active)

O=C(NC1CCCCCC1)C1CCCN1S(=O)(=O)c1cccc2cccnc12 (configuration not stated)
AC50 [7]: 10.7 µM (active)

NC(=O)c1ccc(N2CCCCC2)c(N2C(=O)C3CC=CCC3C2=O)c1 (configuration not stated)
AC50 (Cytochrome P450 2C19; read-out: AC50): 39.8 µM (inconclusive) | AC50 (Cytochrome P450 3A4): 25.1 µM (inconclusive)

O=C(NC(=S)Nc1ccc2c(c1)OCCO2)c1cccc(Br)c1
IC50 [9]: > 66 µM (inactive) | CC50 [10]: 34.8 µM (active) | IC50 [11]: > 66 µM (inactive)

CCOC(=O)C1CCCN(C(=O)c2ccc(-c3ccc([N+](=O)[O-])cc3)o2)C1 (configuration not stated)
IC50 [9]: > 66 µM (inactive) | IC50 [11]: > 66 µM (inactive)

Cc1cccc(NC(=O)CSC(N)=O)c1C
EC50 [12]: > 38 µM (not active) | EC50 [13]: > 150 µM (inactive) | IC50 [9]: > 66 µM (inactive) | IC50 [11]: > 66 µM (inactive)

CC(C)c1ccc(NC2CCCN(C(=O)C3=NN(C)C(=O)CC3)C2)cc1 (configuration not stated)
AC50 [7]: 27.7 µM (active)

CN(C)Cc1ccc(C(C)(C)C)cc1-c1cc(C(C)(C)C)ccc1CN(C)C
AC50 (Cytochrome P450 2C19): inconclusive

Cc1nc2cc(NC(=O)CSc3nc4c(C)cccc4cc3C#N)ccc2s1
AC50 (Cytochrome P450 2C9): 3.55 µM (inconclusive) | AC50 (Cytochrome P450 2C19; read-out: AC50): 0.251 µM (inconclusive)
